# Test results published in PMC2675279 (The Journal of general virology, 2009).
# Tested on: splenocytes from BALB/c mice infected with tk--HSV-2
# Test: IFN-γ ELISPOT, splenocytes after intravaginal tk--HSV-2 infection
# Type: cell-based
# Details: splenocytes from individual BALB/c mice after non-lethal intravaginal infection with live attenuated HSV-2, single peptides at 1 μg mL^-1 (Concanavalin A 2.5 μg mL^-1), means of duplicates
row,Substance,"SFU per 10^6 responder cells, tk--HSV-2 infected mice"
1,HTALATVTLKYAL [UL47 509-521],25 SFU per 10^6 responder cells
2,LLYWPGVRALLGR [UL47 369-381],21 SFU per 10^6 responder cells
3,Concanavalin A [reference compound],TNTC ^‡
4,YAGRMTYIATGAL [UL47 389-401],43 SFU per 10^6 responder cells
